Here are results for eight compounds from patent US10745382B2 (BRISTOL-MYERS SQUIBB COMPANY, priority 2015, dated 2020).

The assay deals with T1, PD-1/PD-L1 (Homo sapiens, UniProt Q9NZQ7).
T1 construct: made in house; host or cells: HEK293T
As to the kind of experiment: PD-1/PD-L1 Homogenous Time-Resolved Fluorescence (HTRF) binding assay. To be noted: PD-L1-His 10 nM, PD-1-Ig 20 nM, read-out: Range or IC50. Summed up:
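Binding was measured by HTRF in dPBS with 0.1% BSA and 0.05% Tween-20. Detection used europium cryptate anti-Ig (1 nM final) and APC anti-His (20 nM final) added over the binding reaction.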

Structures are written as SMILES. Read-outs that look alike come from different tables or passages of the source.

The term IC50 denotes the concentration needed to halve the response being measured.

T1 sequence (Q9NZQ7 with tags, fused parts or gaps): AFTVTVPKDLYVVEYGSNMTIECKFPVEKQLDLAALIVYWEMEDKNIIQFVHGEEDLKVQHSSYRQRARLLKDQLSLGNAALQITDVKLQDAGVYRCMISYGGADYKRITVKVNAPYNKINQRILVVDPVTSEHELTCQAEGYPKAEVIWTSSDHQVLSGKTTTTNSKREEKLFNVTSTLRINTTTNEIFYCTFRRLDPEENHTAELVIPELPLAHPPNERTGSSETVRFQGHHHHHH

`Cc1c(COc2cc(OCc3cncc(C#N)c3)c(CNC(CO)(CO)CO)cc2Cl)cccc1-c1cccc(OCCCNC(CO)(CO)CO)c1C` [Example 2281, 5-((4-chloro-2-(((1,3-dihydroxy-2-(hydroxymethyl)propan-2-yl)amino)methyl)-5-((3′-(3-((1,3-dihydroxy-2-(hydroxymethyl)propan-2-yl)amino)propoxy)-2,2′-dimethyl-[1,1′-biphenyl]-3-yl)methoxy)phenoxy)methyl)nicotinonitrile]: for the setting “numeric IC50”, the 50% inhibitory concentration (IC50) turned out to be 3 nM.
Turning to `Cc1c(COc2cc(OCc3cncc(C#N)c3)c(CNC(CO)(CO)CO)cc2Cl)cccc1-c1cccc(OCCCNC[C@H](O)CO)c1C` [Example 2282, (S)-5-((4-chloro-2-(((1,3-dihydroxy-2-(hydroxymethyl)propan-2-yl)amino)methyl)-5-((3′-(3-((2,3-dihydroxypropyl)amino)propoxy)-2,2′-dimethyl-[1,1′-biphenyl]-3-yl)methoxy)phenoxy)methyl)nicotinonitrile], where the note is “value given as range class”, the half-maximal inhibitory concentration (IC50) lay within 0.21 to 10 nM.
As for `CCC(CO)(CO)NCc1cc(Cl)c(OCc2cccc(-c3cccc(OCCCN4CCCC(CO)C4)c3C)c2C)cc1OCc1cncc(C#N)c1` (centres unmarked) [Example 2283, 5-((4-chloro-2-(((1-hydroxy-2-(hydroxymethyl)butan-2-yl)amino)methyl)-5-((3′-(3-(3-(hydroxymethyl)piperidin-1-yl)propoxy)-2,2′-dimethyl-[1,1′-biphenyl]-3-yl)methoxy)phenoxy)methyl)nicotinonitrile], the 50% inhibitory concentration (IC50) (value given as range class) fell in the range of 0.21 to 10 nM.
Still for that read-out and setting: the value for `Cc1c(COc2cc(OCc3cncc(C#N)c3)c(CNC(CO)(CO)CO)cc2Cl)cccc1-c1cccc(OCCCN2CCCC(CO)C2)c1C` (centres unmarked) [Example 2284, 5-((4-chloro-2-(((1,3-dihydroxy-2-(hydroxymethyl)propan-2-yl)amino)methyl)-5-((3′-(3-(3-(hydroxymethyl)piperidin-1-yl)propoxy)-2,2′-dimethyl-[1,1′-biphenyl]-3-yl)methoxy)phenoxy)methyl)nicotinonitrile] was 0.21 to 10 nM; that for `Cc1c(COc2cc(OCc3cncc(C#N)c3)c(CNC(CO)(CO)CO)cc2Cl)cccc1-c1cccc(OCCCN2CC[C@@H](O)C2)c1C` [Example 2285, (R)-5-((4-chloro-2-(((1,3-dihydroxy-2-(hydroxymethyl)propan-2-yl)amino)methyl)-5-((3′-(3-(3-hydroxypyrrolidin-1-yl)propoxy)-2,2′-dimethyl-[1,1′-biphenyl]-3-yl)methoxy)phenoxy)methyl)nicotinonitrile] was 0.21 to 10 nM; that for `Cc1c(COc2cc(OCc3cncc(C#N)c3)c(CN[C@@](C)(CO)C(=O)O)cc2Cl)cccc1-c1cccc(OCCCNC[C@H](O)CO)c1C` [Example 2286, (S)-2-((5-chloro-2-((5-cyanopyridin-3-yl)methoxy)-4-((3′-(3-(((S)-2,3-dihydroxypropyl)amino)propoxy)-2,2′-dimethyl-[1,1′-biphenyl]-3-yl)methoxy)benzyl)amino)-3-hydroxy-2-methylpropanoic Acid] was 0.21 to 10 nM.
Same read-out and setting: the value for `Cc1c(COc2cc(OCc3cncc(C#N)c3)c(CNC(C)(CO)CO)cc2Cl)cccc1-c1cccc(OCCCN2CCCCC2)c1C` [Example 2287, 5-((4-chloro-2-(((1,3-dihydroxy-2-methylpropan-2-yl)amino)methyl)-5-((2,2′-dimethyl-3′-(3-(piperidin-1-yl)propoxy)-[1,1′-biphenyl]-3-yl)methoxy)phenoxy)methyl)nicotinonitrile] was 0.21 to 10 nM; that for `Cc1c(COc2cc(OCc3cncc(C#N)c3)c(CNC(C)(CO)CO)cc2Cl)cccc1-c1cccc(OCCCN2CCC(CO)CC2)c1C` [Example 2288, 5-((4-chloro-2-(((1,3-dihydroxy-2-methylpropan-2-yl)amino)methyl)-5-((3′-(3-(4-(hydroxymethyl)piperidin-1-yl)propoxy)-2,2′-dimethyl-[1,1′-biphenyl]-3-yl)methoxy)phenoxy)methyl)nicotinonitrile] was 0.21 to 10 nM.
